# What was measured:
# Experiment in all cases: relative viability (nuclei count vs DMSO), 5 days (fraction); higher = more cells survive
# [1] = compound: CO[C@H]1C[C@@H]2CC[C@@H](C)[C@@](O)(O2)C(=O)C(=O)N2CCCC[C@H]2C(=O)O[C@H]([C@H](C)C[C@@H]2CC[C@@H](OCCO)[C@H](OC)C2)CC(=O)[C@H](C)/C=C(\C)[C@@H](O)[C@@H](OC)C(=O)[C@H](C)C[C@H](C)/C=C/C=C/C=C/1C [Everolimus] + CS(=O)(=O)N1CCN(Cc2cc3nc(-c4cccc5[nH]ncc45)nc(N4CCOCC4)c3s2)CC1 [Pictilisib] (partner 1 µM)
# Summary of the method: (§1)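 The day after seeding in 1536-well plates, lung cancer cell lines were treated by pin tool with a single drug, or with a fixed anchor-drug dose together with five library-drug doses (not always all listed) in √10 steps. After 5 days, a combined fix-and-stain solution (final 0.05% Triton X-100, 1% formaldehyde, 1 ug/ml Hoechst) was added. Nuclei counted on 4× images gave relative viability as treated counts over vehicle counts, reported as the median of duplicate plates.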
# [2] = compound: CO[C@H]1C[C@@H]2CC[C@@H](C)[C@@](O)(O2)C(=O)C(=O)N2CCCC[C@H]2C(=O)O[C@H]([C@H](C)C[C@@H]2CC[C@@H](OCCO)[C@H](OC)C2)CC(=O)[C@H](C)/C=C(\C)[C@@H](O)[C@@H](OC)C(=O)[C@H](C)C[C@H](C)/C=C/C=C/C=C/1C [Everolimus] + C[C@]1(O)C[C@@H](c2nc(-c3ccc4ccc(-c5ccccc5)nc4c3)c3c(N)nccn32)C1 [Linsitinib] (partner 1 µM)
# Summary of the method: as §1
# [3] = compound: CO[C@H]1C[C@@H]2CC[C@@H](C)[C@@](O)(O2)C(=O)C(=O)N2CCCC[C@H]2C(=O)O[C@H]([C@H](C)C[C@@H]2CC[C@@H](OCCO)[C@H](OC)C2)CC(=O)[C@H](C)/C=C(\C)[C@@H](O)[C@@H](OC)C(=O)[C@H](C)C[C@H](C)/C=C/C=C/C=C/1C [Everolimus] + Cc1nc(NC(=O)N2CCC[C@H]2C(N)=O)sc1-c1ccnc(C(C)(C)C(F)(F)F)c1 [Alpelisib] (partner 2 µM)
# Summary of the method: as §1
# [4] = compound: CO[C@H]1C[C@@H]2CC[C@@H](C)[C@@](O)(O2)C(=O)C(=O)N2CCCC[C@H]2C(=O)O[C@H]([C@H](C)C[C@@H]2CC[C@@H](OCCO)[C@H](OC)C2)CC(=O)[C@H](C)/C=C(\C)[C@@H](O)[C@@H](OC)C(=O)[C@H](C)C[C@H](C)/C=C/C=C/C=C/1C [Everolimus] + Nc1ncn([C@H]2C[C@H](O)[C@@H](CO)O2)c(=O)n1 [Decitabine] (partner 2 µM)
# Summary of the method: as §1
Cell Line,relative viability ([1]; first compound 0.01 µM),relative viability ([1]; first compound 0.03162 µM),relative viability ([1]; first compound 0.1 µM),relative viability ([1]; first compound 0.3162 µM),relative viability ([1]; first compound 1 µM),relative viability ([2]; first compound 0.01 µM),relative viability ([2]; first compound 0.03162 µM),relative viability ([2]; first compound 0.1 µM),relative viability ([2]; first compound 0.3162 µM),relative viability ([2]; first compound 1 µM),relative viability ([3]; first compound 0.01 µM),relative viability ([3]; first compound 0.03162 µM),relative viability ([3]; first compound 0.1 µM),relative viability ([3]; first compound 0.3162 µM),relative viability ([3]; first compound 1 µM),relative viability ([4]; first compound 0.01 µM),relative viability ([4]; first compound 0.03162 µM),relative viability ([4]; first compound 0.1 µM),relative viability ([4]; first compound 0.3162 µM),relative viability ([4]; first compound 1 µM)
COR-L 105,0.331,0.376,0.295,0.368,0.313,0.743,0.604,0.585,0.686,0.504,0.585,0.526,0.489,0.567,0.518,0.516,0.529,0.522,0.502,0.548
LK-2,0.5,–,0.37,0.322,0.386,0.426,0.497,0.286,0.282,0.198,0.827,–,0.607,0.568,0.556,0.268,0.156,0.19,0.194,0.193
NCI-H727,0.268,0.274,0.309,0.239,0.275,0.207,0.2,0.203,0.291,0.362,0.399,0.328,0.266,0.308,0.364,0.73,0.594,0.591,0.642,0.617
RERF-LC-KJ,0.345,0.445,0.214,0.409,0.238,0.86,0.679,0.609,0.531,0.571,0.632,0.463,0.408,0.481,0.53,0.535,0.594,0.552,0.541,0.45
NCI-H2023,0.164,0.144,0.135,0.174,0.111,0.301,0.323,0.303,0.282,0.219,0.411,0.326,0.302,0.271,0.215,0.204,0.21,0.198,0.199,0.168
NCI-H322M,0.445,0.445,0.352,0.429,0.397,0.87,0.695,0.683,0.739,0.645,0.686,0.577,0.578,0.585,0.58,0.766,0.7,0.585,0.596,0.609
NCI-H1666,0.295,0.344,0.309,0.341,0.295,0.644,0.407,0.468,0.455,0.468,0.776,0.509,0.584,0.496,0.511,0.676,0.553,0.639,0.75,0.672
SW 900,–,–,–,–,–,–,–,–,–,–,–,–,–,–,–,0.434,0.404,0.4,0.406,0.439
NCI-H2087,0.502,0.595,0.48,0.722,0.591,0.821,1.09,0.765,0.788,0.674,0.796,0.897,0.839,0.663,0.657,0.229,0.205,0.2,0.198,0.257
LU99A,0.213,0.212,0.212,0.194,0.249,0.342,0.345,0.295,0.283,0.334,0.284,0.278,0.294,0.259,0.315,0.537,0.514,0.43,0.485,0.566
HCC-366,0.116,0.0953,0.131,0.11,0.138,0.338,0.372,0.274,0.291,0.343,0.334,0.231,0.251,0.25,0.267,0.301,0.226,0.257,0.291,0.212
EKVX,0.251,0.24,0.234,0.245,0.22,0.863,0.728,0.63,0.402,0.568,0.479,0.48,0.436,0.61,0.449,–,0.245,0.226,0.226,0.371
NCI-H2342,–,–,–,–,–,–,–,–,–,–,–,–,–,–,–,0.652,0.534,0.474,0.512,0.537
NCI-H1755,0.334,0.381,0.292,0.354,0.329,0.883,0.717,0.665,0.727,0.658,0.646,0.659,0.653,0.643,0.611,0.582,0.56,0.489,0.52,0.534
NCI-H647,0.261,0.299,0.215,0.213,0.256,0.629,0.76,0.58,0.647,0.653,0.626,0.534,0.449,0.429,0.757,0.16,0.157,0.101,0.0533,0.158
LC-2-ad,0.456,0.372,0.386,0.282,0.283,0.75,0.744,0.781,0.766,0.702,0.752,0.885,0.754,0.737,0.818,0.846,0.779,0.888,0.819,0.726

# Reference: the supplement of paper PMC10307832
